# Test results from US8299089B2, “Multi-arm polymeric conjugates of 7-ethyl-10-hydroxycamptothecin for treatment of breast, colorectal, pancreatic, ovarian and lung cancers” (priority 2006, dated 2012).
# Legend:
# ASPC-1 = experiment: In vitro cytotoxicity, MTS assay, ASPC-1; type: cell-based
# Procedure: (§1) In Table 2, the cytotoxicity (μM of each compound that results in an IC50) provides an indication of the in vitro anti-tumor potency of each compound. This study was used to determine the effect of PEGylation of four-arm PEGylated 7-ethyl-10-hydroxycamptothecin conjugates. […] Cells were incubated with drugs for 72 hours at 37° C. Following incubation, MTS dye was added and formation of a colored product (formazan) was measured at 490 nm.
# OVCAR-8 = experiment: In vitro cytotoxicity, MTS assay, OVCAR-8; type: cell-based
# Procedure: as §1
# [1] = system: MiaPaCa-2 pancreatic tumor cells; experiment: Efficacy in MiaPaCa-2 pancreatic tumor xenograft mice; type: in vivo
# [2] = Maximum tolerated dose (MTD) in nude mice; conditions: mouse, in vivo
# Excerpt: Mice were monitored for 14 days for mortality and signs of illness and sacrificed when body weight loss was >20% of the pretreatment body weight.
# [3] = system: human mammary carcinoma (MX-1); experiment: Multiple dose efficacy in MX-1 breast tumor xenograft mouse model; type: in vivo, nude mice; conditions: i.v. 5 mg/kg/dose (q2d×6), day 31
# Procedure: The mice were dosed 5 mg/kg/day […] (every 2 days [q×2d]×6). Mouse weight and tumor sizes were monitored up to the 31st day after the first dose administration and subsequent administrations.
# A549 = experiment: In vitro cytotoxicity, MTS assay, A549; type: cell-based
# Procedure: as §1
# OVCAR-3 = experiment: In vitro cytotoxicity, MTS assay, OVCAR-3; type: cell-based
# Procedure: as §1
# [4] = system: human mammary, MX-1 tumors; experiment: Efficacy in small and large MX-1 breast tumor xenografted mice; type: in vivo, nude mice; conditions: for effect on body weight: given at the MTD, for the duration of the treatment
# Procedure: The antitumor efficacy of 4armPEG-Gly-(7-ethyl-10-hydroxycamptothecin) was evaluated in nude mice bearing small (about 100 mm^3) or large (about 450 mm^3) established human mammary, MX-1 tumors. The antitumor therapeutic activities were determined in mice both with a single dose or multiple dose regimens.
# Four of six mice were cured as of day 54. […] All animals were sacrificed by day 20 due to excessive tumor burden.
# [5] = system: human mammary carcinoma (MX-1); experiment: Single dose efficacy in MX-1 breast tumor xenograft mouse model; type: in vivo, nude mice; conditions: day 31; for Mean TV ± SD: single dose i.v. 20 mg/kg (conjugate as 7-ethyl-10-hydroxycamptothecin equivalent)
# Procedure: Following at least one week of acclimation, tumors were established by implanting small tumor fragments from donor mice into a single subcutaneous site, on the left auxiliary flank region of nude mice. The tumor implantation site was observed twice weekly and measured once palpable. The tumor volume for each mouse was determined by measuring two dimensions with calipers and calculated using the formula: tumor volume=(length×width^2). […] Drugs were administered intravenously via the tail vein as a single dose of 20 mg/kg body weight of a mouse. […] Mouse weight and tumor sizes were measured at the beginning of study and on the 31st day after the single dose administration.
# The overall growth of tumors was calculated as the mean tumor volume (TV). A percent treatment over control (T/C) was also calculated. The percentage of tumor regression indicates the in vivo activity of each compound.
# SK-0V-3 = experiment: In vitro cytotoxicity, MTS assay, SK-0V-3; type: cell-based
# Procedure: as §1
# Colo 205 = experiment: In vitro cytotoxicity, MTS assay, Colo 205; type: cell-based
# Procedure: as §1
# OV90 = experiment: In vitro cytotoxicity, MTS assay, OV90; type: cell-based
# Procedure: as §1
# BxPC-3 = experiment: In vitro cytotoxicity, MTS assay, BxPC-3; type: cell-based
# Procedure: as §1
# MIA PaCa-2 = experiment: In vitro cytotoxicity, MTS assay, MIA PaCa-2; type: cell-based
# Procedure: as §1
# [6] = system: HT-29 colorectal tumor cells; experiment: Efficacy in HT-29 colorectal tumor xenograft mice; conditions: for effect on body weight: during the treatment
# HT29 = experiment: In vitro cytotoxicity, MTS assay, HT29; type: cell-based
# Procedure: as §1
# A2780 = experiment: In vitro cytotoxicity, MTS assay, A2780; type: cell-based
# Procedure: as §1
# PANC-1 = experiment: In vitro cytotoxicity, MTS assay, PANC-1; type: cell-based
# Procedure: as §1
# Pharmacokinetics in rats = type: in vivo; conditions: rats, 3, 10 and 30 mg/kg; conjugate
# [7] = system: panel of cancer cell lines; experiment: In vitro cytotoxicity, panel of cancer cell lines (comparisons); type: cell-based
# Procedure: as §1
# PEG-(7-ethyl-10-hydroxycamptothecin) conjugates containing various amino acids are potent in vitro cytotoxicity against a panel of cancer cell lines as summarized in TABLE 3.
# [8] = Pharmacokinetics in tumor free Balb/C mice; type: in vivo
# Excerpt: Pharmacokinetic analysis was done using non-compartmental analysis (WinNonlin).
# [9] = Stability in saline, aqueous medium and buffer; type: physicochemical; conditions: effect of pH, FIG. 13
# Procedure: PEG-7-ethyl-10-hydroxycamptothecin conjugates show good stability in saline and other aqueous medium for up to 24 hours at room temperature.
# [10] = multiple doses i.v. (10 mg/kg/dose for five days; CPT-11 also 40 mg/kg/dose)
# [11] = single dose i.v. (30 mg/kg; CPT-11 also 80 mg/kg)
# [12] = small tumors (about 100 mm^3), multiple doses 20 mg/kg q2d×5, as of day 31
# [13] = small tumors (about 100 mm^3), single dose 20 mg/kg
compound,measurement,setting,value
"CCc1c2c(nc3ccc(OC(=O)N4CCC(N5CCCCC5)CC4)cc13)-c1cc3c(c(=O)n1C2)COC(=O)[C@]3(O)CC [CPT-11, Irinotecan, reference compound]",IC50,"ASPC-1; Homo sapiens, ASPC1, 72 h",33 ± 1 µM
same,IC50,"OVCAR-8; Homo sapiens, OVCAR-8, 72 h",9 ± 1.3 µM
same,TGI,[1]; [10],34%
same,TGI,[1]; [11],0%
same,MTD at 14 days,[2]; multiple dose (q2d×5),40 mg/kg
same,MTD at 14 days,[2]; single dose,80 mg/kg
same,Chg in TV ± SD,[3],423 ± 243%
same,Cures,[3],0%
same,F/I,[3],594%
same,Mean TV ± SD,[3],632 ± 698 mm^3
same,Median TV,[3],340 mm^3
same,Regressions,[3],0%
same,Survival,[3],0%
same,T/C,[3],43%
same,TGI,[3],44%
same,IC50,"A549; Homo sapiens, A549, 72 h",67 ± 17 µM
same,IC50,"A549; Homo sapiens, Table 3, A549 (lung)",13 µM
same,IC50,"OVCAR-3; Homo sapiens, OVCAR-3, 72 h",20 ± 7.1 µM
same,IC50,"OVCAR-3; Homo sapiens, Table 3, OVCAR-3 (ovarian)",41 µM
same,effect on body weight,[4],did not significantly decrease the body weight
same,tumor growth inhibition,"[4]; large tumors, 10 mg/kg q2d×5","effective TGI until treatment was discontinued, after which tumors regrew"
same,mice in which tumors regrew,"[4]; large tumors, 40 mg/kg q2d×5, after ~5 weeks",four of the six
same,TGI,"[4]; large tumors, multiple doses at MTD 40 mg/kg q2d×5, as of day 13",~95%
same,TGI,"[4]; large tumors, single MTD 80 mg/kg, day 13",70%
same,TGI,[4]; [12],44%
same,TGI,[4]; [13],did not inhibit tumor growth
same,Mean TV ± SD,[5],845 ± 50 mm^3
same,Cures,[5]; single dose i.v. 20 mg/kg,0%
same,F/I,[5]; single dose i.v. 20 mg/kg,843%
same,Median TV,[5]; single dose i.v. 20 mg/kg,845 mm^3
same,Regressions,[5]; single dose i.v. 20 mg/kg,0%
same,Survival,[5]; single dose i.v. 20 mg/kg,0%
same,T/C,[5]; single dose i.v. 20 mg/kg,108%
same,TGI,[5]; single dose i.v. 20 mg/kg,26%
same,IC50,SK-0V-3; 72 h,52 ± 8.5 µM
same,IC50,"Colo 205; Homo sapiens, COLO 205",20 µM
same,IC50,"Colo 205; Homo sapiens, COLO 205, 72 h",11 ± 1.4 µM
same,IC50,"OV90; Homo sapiens, OV-90, 72 h",18 ± 4.8 µM
same,IC50,"BxPC-3; Homo sapiens, BXPC-3, 72 h",44 ± 44 µM
same,IC50,"MIA PaCa-2; Homo sapiens, MIA PaCa-2, 72 h",67 ± 46 µM
same,effect on body weight,[6],did not significantly decrease the body of weight
same,IC50,"HT29; Homo sapiens, HT-29, 72 h",27 ± 8.6 µM
same,IC50,"HT29; Homo sapiens, HT-29, Table 3, HT29 (colorectal)",56 µM
same,IC50,"A2780; Homo sapiens, A2780, 72 h",8 ± 3.5 µM
same,IC50,"PANC-1; Homo sapiens, PANC-1, 72 h",34 ± 16 µM
^40k4arm-PEG-Gly(20)-(7-ethyl-10-hydroxycamptothecin) [Compound 9],IC50,"ASPC-1; Table 2, ASPC-1, 72 hours, Compound 9 in 7-ethyl-10-hydroxycamptothecin equivalents, average ± SD (n = 3)",1.6 ± 1.1 µM
same,IC50,"OVCAR-8; Table 2, OVCAR-8, 72 hours, Compound 9 in 7-ethyl-10-hydroxycamptothecin equivalents, average ± SD (n = 3)",0.5 ± 0.1 µM
same,TGI,[1]; [10],95%
same,TGI,[1]; [11],71%
same,Chg in TV ± SD,[3],−91 ± 10%
same,Cures,[3],100%
same,F/I,[3],14%
same,Mean TV ± SD,[3],12 ± 18 mm^3
same,Median TV,[3],6.6 mm^3
same,Regressions,[3],100%
same,Survival,[3],100%
same,T/C,[3],0.8%
same,TGI,[3],99%
same,IC50,"A549; Table 2, A549, 72 hours, Compound 9 in 7-ethyl-10-hydroxycamptothecin equivalents, average ± SD (n = 3)",2.7 ± 0.4 µM
same,IC50,"OVCAR-3; Table 2, OVCAR-3, 72 hours, Compound 9 in 7-ethyl-10-hydroxycamptothecin equivalents, average ± SD (n = 3)",0.3 ± 0.2 µM
same,effect on body weight,[4],did not significantly decrease the body weight
same,TGI,"[4]; large tumors (about 450 mm^3), single MTD 30 mg/kg",96%
same,mice cured,"[4]; large tumors, multiple doses 10 mg/kg q2d×5, as of day 54",five of six
same,TGI,"[4]; large tumors, multiple doses at MTD 10 mg/kg q2d×5",96%
same,mice cured,"[4]; large tumors, single MTD 30 mg/kg, as of day 54",Four of six
same,TGI,[4]; [12],96%
same,TGI,[4]; [13],100%
same,Mean TV ± SD,[5],7 ± 9 mm^3
same,Chg in TV ± SD,[5]; single dose i.v. 20 mg/kg,−94 ± 10%
same,Cures,[5]; single dose i.v. 20 mg/kg,100%
same,F/I,[5]; single dose i.v. 20 mg/kg,7%
same,Median TV,[5]; single dose i.v. 20 mg/kg,3 mm^3
same,Regressions,[5]; single dose i.v. 20 mg/kg,100%
same,Survival,[5]; single dose i.v. 20 mg/kg,100%
same,T/C,[5]; single dose i.v. 20 mg/kg,0.3%
same,TGI,"[5]; single dose i.v. 20 mg/kg, 20 mg/kg",99%
same,TGI,"[5]; single dose i.v. 20 mg/kg, listed as 4armPEG-Gly-(7-ethyl-10-hydroxycamptothecin), 20 mg/kg",~100%
same,IC50,"SK-0V-3; Table 2, SK-0V-3, 72 hours, Compound 9 in 7-ethyl-10-hydroxycamptothecin equivalents, average ± SD (n = 3)",0.9 ± 0.01 µM
same,IC50,"Colo 205; Table 2, Colo 205, 72 hours, Compound 9 in 7-ethyl-10-hydroxycamptothecin equivalents, average ± SD (n = 3)",1 ± 0.6 µM
same,IC50,"OV90; Table 2, OV90, 72 hours, Compound 9 in 7-ethyl-10-hydroxycamptothecin equivalents, average ± SD (n = 3)",0.6 ± 0.7 µM
same,elimination half life,Pharmacokinetics in rats,12 to 18 h
same,IC50,"BxPC-3; Table 2, BxPC-3, 72 hours, Compound 9 in 7-ethyl-10-hydroxycamptothecin equivalents, average ± SD (n = 3)",0.24 ± 0.04 µM
same,IC50,"MIA PaCa-2; Table 2, MIA PaCa-2, 72 hours, Compound 9 in 7-ethyl-10-hydroxycamptothecin equivalents, no SD = average of two replicates",0.09 µM
same,effect on body weight,[6],did not significantly decrease the body of weight
same,therapeutic efficacy,"[6]; i.v. 10 mg/kg/dose for five days, days 4-22",significant therapeutic efficacy compared to that of CPT-11
same,anti-tumor activity,"[6]; single dose i.v. 30 mg/kg, days 4-22",significant anti-tumor activity
same,in vitro inhibition compared with CPT-11,[7]; all tested tumor cells,much higher in vitro inhibition
same,in vitro inhibition compared with native 7-ethyl-10-hydroxycamptothecin,[7]; tested tumor cells except for HT29,significantly higher in vitro inhibition
same,IC50,"HT29; Table 2, HT29, 72 hours, Compound 9 in 7-ethyl-10-hydroxycamptothecin equivalents, average ± SD (n = 3)",0.5 ± 0.3 µM
same,terminal elimination half-life,[8]; for 7-ethyl-10-hydroxycamptothecin,18 to 26 h
same,terminal elimination half-life,[8]; for the conjugate,18 to 22 h
same,IC50,"A2780; Table 2, A2780, 72 hours, Compound 9 in 7-ethyl-10-hydroxycamptothecin equivalents, average ± SD (n = 3)",0.2 ± 0.2 µM
same,rate of 7-ethyl-10-hydroxycamptothecin release,[9],increases with increased pH
same,IC50,"PANC-1; Table 2, PANC-1, 72 hours, Compound 9 in 7-ethyl-10-hydroxycamptothecin equivalents, average ± SD (n = 3)",0.67 ± 0.14 µM
